Measured values published in ChEMBL document CHEMBL5506048, “Modular Biomimetic Strategy Enables Discovery and SAR Exploration of Oxime Macrocycles as Influenza A Virus (H1N1) Inhibitors” (J Med Chem, 2024).
Activity calls are given as the source filed them. No cut-off for these calls is given here.

What was measured:
[1] = system: Influenza A virus; experiment: Antiviral activity against Influenza virus H1N1 A/Puerto Rico/8/34 (A/PR/8/34) infected in human Calu-3 cells assessed as viral RNA measured after 3 days by one-time real time PCR assay; format: functional, organism-based
[2] = system: Calu-3; experiment: Cytotoxicity against human Calu-3 cells assessed as cell viability measured after 3 days by CellTiter-Lumi Steady Plus Luminescent Cell Viability Assay Kit; format: functional; conditions: Calu-3, 72 h, time 3 day
[3] = Selectivity index, ratio of CC50 for human Calu-3 cells to EC50 for antiviral activity against Influenza virus HINI A/Puerto Rico/8/34 (A/PR/8/34); format: toxicity; conditions: read-out: Selectivity Index
[4] = system: Influenza A virus; experiment: Antiviral activity against Influenza virus H1N1 A/Puerto Rico/8/34 (A/PR/8/34) 2.5TCID50 infected in human Calu-3 cells assessed as reduction in virus-induced cytopathic effect by measuring cell rounding at 0.0156 to 37 uM measured after 3 days by immunofluorescence assay; format: functional, organism-based; conditions: dose 0.0156-37 µM, time 3.0 day
[5] = system: Influenza A virus; experiment: Antiviral activity against Influenza virus H1N1 A/Puerto Rico/8/34 (A/PR/8/34) 2.5TCID50 infected in human Calu-3 cells assessed as reduction in virus-induced cytopathic effect by measuring degeneration at 0.0156 to 37 uM measured after 3 days by immunofluorescence assay; format: functional, organism-based; conditions: dose 0.0156-37 µM, time 3.0 day
[6] = system: Influenza A virus; experiment: Antiviral activity against Influenza virus H1N1 A/Puerto Rico/8/34 (A/PR/8/34) 2.5TCID50 infected in human Calu-3 cells assessed as reduction in virus-induced cytopathic effect by measuring sloughing at 0.0156 to 37 uM measured after 3 days by immunofluorescence assay; format: functional, organism-based; conditions: dose 0.0156-37 µM, time 3.0 day
[7] = system: Influenza A virus; experiment: Antiviral activity against HIV pseudotyped H5N1 HA infected in human 293T cells assessed as inhibition of viral entry into cells by measuring intensity of chemiluminescence measured after 3 days by Bright-Glo luciferase assay; format: functional, organism-based; conditions: HEK293T, time 3.0 day
[8] = system: Ebolavirus; experiment: Antiviral activity against HIV pseudotyped EBOV GP infected in human 293T cells assessed as inhibition of viral entry into cells by measuring intensity of chemiluminescence measured after 3 days by Bright-Glo luciferase assay; format: functional, organism-based; conditions: HEK293T, time 3.0 day
[9] = system: Influenza A virus; experiment: Antiviral activity against Influenza virus HIN1 (A/California/07/2009 pdm09) infected in human Calu-3 cells assessed as viral RNA measured after 3 days by one-time real time PCR assay; format: functional, organism-based; conditions: Calu-3, 72 h
[10] = system: Influenza A virus; experiment: Antiviral activity against Influenza virus H3N2 (A/Hong Kong/8/68) infected in human Calu-3 cells assessed as viral RNA measured after 3 days by one-time real time PCR assay; format: functional, organism-based; conditions: Calu-3, 72 h
[11] = system: Influenza B virus; experiment: Antiviral activity against Influenza virus Flu B (B/Taiwan/2/62) infected in human Calu-3 cells assessed as viral RNA measured after 3 days by one-time real time PCR assay; format: functional, organism-based; conditions: B/Taiwan/2/62, Calu-3, 72 h
[12] = system: Influenza A virus; experiment: Synergistic antiviral activity against Influenza virus H1N1 A/Puerto Rico/8/34 (A/PR/8/34) infected in human Calu-3 cells assessed as combination index of 50% inhibition at 0.06 nM in presence of 450 nM oseltamivir acid; format: functional
[13] = system: Influenza A virus; experiment: Synergistic antiviral activity against Influenza virus H1N1 A/Puerto Rico/8/34 (A/PR/8/34) infected in human Calu-3 cells assessed as combination index of 50% inhibition at 0.24 nM in presence of 170 nM oseltamivir acid; format: functional
[14] = system: Influenza A virus; experiment: Synergistic antiviral activity against Influenza virus H1N1 A/Puerto Rico/8/34 (A/PR/8/34) infected in human Calu-3 cells assessed as combination index of 50% inhibition at 0.98 nM in presence of 172 nM oseltamivir acid; format: functional
[15] = system: Influenza A virus; experiment: Synergistic antiviral activity against Influenza virus H1N1 A/Puerto Rico/8/34 (A/PR/8/34) infected in human Calu-3 cells assessed as combination index of 50% inhibition at 2.61 nM in presence of 62.5 nM oseltamivir acid; format: functional
[16] = system: Influenza A virus; experiment: Synergistic antiviral activity against Influenza virus H1N1 A/Puerto Rico/8/34 (A/PR/8/34) infected in human Calu-3 cells assessed as combination index of 50% inhibition at 3.91 nM in presence of 83.1 nM oseltamivir acid; format: functional
[17] = system: Influenza A virus; experiment: Synergistic antiviral activity against Influenza virus H1N1 A/Puerto Rico/8/34 (A/PR/8/34) infected in human Calu-3 cells assessed as combination index of 50% inhibition at 15.6 nM in presence of 31 nM oseltamivir acid; format: functional
[18] = system: Influenza A virus; experiment: Synergistic antiviral activity against Influenza virus H1N1 A/Puerto Rico/8/34 (A/PR/8/34) infected in human Calu-3 cells assessed as combination index of 50% inhibition at 28.3 nM in presence of 3.91 nM oseltamivir acid; format: functional
[19] = Stability of the compound in RPMI 1640 cell culture medium containing 10% fetal bovine serum assessed as compound remaining measured after 24 hrs by LC-MS/MS analysis; format: physicochemical, cell-free; conditions: cattle, read-out: Stability
[20] = Stability of the compound in pH 7.4 PBS buffer assessed as compound remaining measured after 24 hrs by LC-MS/MS analysis; format: physicochemical; conditions: read-out: Stability
[21] = Half life in ICR (CD-1) mouse at 10 mg/kg, po measured upto 24 hrs by LC-MS/MS analysis; format: ADME, organism-based; conditions: in vivo
[22] = Tmax in ICR (CD-1) mouse at 10 mg/kg, po measured upto 24 hrs by LC-MS/MS analysis; format: ADME, organism-based; conditions: in vivo
[23] = Cmax in ICR (CD-1) mouse at 10 mg/kg, po measured upto 24 hrs by LC-MS/MS analysis; format: ADME, organism-based; conditions: in vivo
[24] = AUC (0 to infinity) in ICR (CD-1) mouse at 10 mg/kg, po measured upto 24 hrs by LC-MS/MS analysis; format: ADME, organism-based; conditions: in vivo
[25] = Oral bioavailability in ICR (CD-1) mouse at 10 mg/kg measured upto 24 hrs by LC-MS/MS analysis; format: ADME, organism-based; conditions: in vivo
[26] = Half life in ICR (CD-1) mouse at 2 mg/kg, iv measured upto 24 hrs by LC-MS/MS analysis; format: ADME, organism-based; conditions: in vivo
[27] = AUC (0 to infinity) in ICR (CD-1) mouse at 2 mg/kg, iv measured upto 24 hrs by LC-MS/MS analysis; format: ADME, organism-based; conditions: in vivo
[28] = Clearance in ICR (CD-1) mouse at 2 mg/kg, iv measured upto 24 hrs by LC-MS/MS analysis; format: ADME, organism-based; conditions: in vivo
[29] = Volume of distribution in ICR (CD-1) mouse at 2 mg/kg, iv measured upto 24 hrs by LC-MS/MS analysis; format: ADME, organism-based; conditions: in vivo
[30] = system: Influenza A virus; experiment: Antiviral activity against HIV pseudotyped H1N1 HA infected in human 293T cells assessed as inhibition of viral entry into cells by measuring intensity of chemiluminescence measured after 3 days by Bright-Glo luciferase assay; format: functional, organism-based; conditions: HEK293T, time 3.0 day

C=C1Cc2cc(C(F)(F)F)ccc2C(=O)NCC2(CCC2)/C(=N/OC)CCCOC1=O
EC50 ([1]; Calu-3, 72 h): 0.023 µM
EC90 ([1]; Calu-3, 72 h, time 3 day): 0.142 µM
CC50 [2]: > 100 µM
selectivity ratio [3]: > 4350
Activity [4]: Active
Activity [5]: Active
Activity [6]: Active
Activity [7]: inactive
Activity [8]: inactive
EC50 [9]: 0.062 µM
EC50 [10]: > 50 µM
EC50 [11]: > 50 µM
CI50 [12]: 0.84
CI50 [13]: 0.32
CI50 [14]: 0.35
CI50 [15]: 0.2
CI50 [16]: 0.28
CI50 [17]: 0.57
CI50 [18]: 0.93
remaining at 24 h [19]: > 90%
remaining at 24 h [20]: > 90%
half-life [21]: 39 min
Tmax [22]: 15 min
Cmax [23]: 2.42 ng/mL
AUC(0-inf) [24]: 2.65 ng·h/mL
bioavailability [25]: 0.12%
half-life [26]: 24.6 min
AUC(0-inf) [27]: 222 ng·h/mL
clearance [28]: 151 mL/min/kg
Vd [29]: 3.12 L/kg

C=C1Cc2cc(C(F)(F)F)ccc2C(=O)NCC(C)(C)/C(=N/OC)CC[C@H](C)OC1=O
EC50 ([1]; Calu-3, 72 h): 0.013 µM
EC90 ([1]; Calu-3, 72 h, time 3 day): 0.235 µM
CC50 [2]: 90.4 µM
selectivity ratio [3]: 6950
Activity [30]: Dose-Dependent Effect
Activity [7]: inactive
Activity [8]: inactive
EC50 [9]: 0.048 µM
EC50 [10]: > 50 µM
EC50 [11]: > 50 µM

C=C1Cc2cc(NC(C)=O)ccc2C(=O)NCC(C)(C)/C(=N/OC)CCCOC1=O
EC50 ([1]; Calu-3, 72 h): 2.69 µM
EC90 ([1]; Calu-3, 72 h, time 3 day): 5.06 µM
CC50 [2]: > 100 µM
selectivity ratio [3]: > 37

C=C1Cc2cc(C(F)(F)F)ccc2C(=O)NCC(C)(C)/C(=N/OC)CC[C@@H](C)OC1=O
EC50 ([1]; Calu-3, 72 h): 1.47 µM
EC90 ([1]; Calu-3, 72 h, time 3 day): > 100 µM
CC50 [2]: 26.5 µM
selectivity ratio [3]: 18

C=C1Cc2cc(C(F)(F)F)ccc2C(=O)NCC(C)(C)/C(=N/OC)CCC(CO)OC1=O (centres undefined)
EC50 ([1]; Calu-3, 72 h): 20.2 µM
EC90 ([1]; Calu-3, 72 h, time 3 day): > 100 µM
CC50 [2]: > 100 µM
selectivity ratio [3]: > 4

CO/N=C1\CCCOC(=O)C(C)Cc2cc(C(F)(F)F)ccc2C(=O)NCC1(C)C (centres undefined)
EC50 ([1]; Calu-3, 72 h): 2.74 µM
EC90 ([1]; Calu-3, 72 h, time 3 day): > 100 µM
CC50 [2]: > 100 µM
selectivity ratio [3]: > 36

C=C1Cc2cc(C(F)(F)F)ccc2C(=O)NCC(C)(C)/C(=N/OC)CCC(C)OC1=O (centres undefined)
EC50 ([1]; Calu-3, 72 h): 0.096 µM
EC90 ([1]; Calu-3, 72 h, time 3 day): 0.823 µM
CC50 [2]: > 100 µM
selectivity ratio [3]: > 1040

C=C1Cc2ccc(C(F)(F)F)cc2C(=O)NCC(C)(C)/C(=N/OC)CCCOC1=O
EC50 ([1]; Calu-3, 72 h): 0.264 µM
EC90 ([1]; Calu-3, 72 h, time 3 day): 1.05 µM
CC50 [2]: 73.6 µM
selectivity ratio [3]: 278

C=C1Cc2cc(C(F)(F)F)ccc2C(=O)NCC2(CC2)/C(=N/OC)CCCOC1=O
EC50 ([1]; Calu-3, 72 h): 0.247 µM
EC90 ([1]; Calu-3, 72 h, time 3 day): 1.23 µM
CC50 [2]: > 100 µM
selectivity ratio [3]: > 404

C=C1Cc2cc(N3CCOCC3)ccc2C(=O)NCC(C)(C)/C(=N/OC)CCCOC1=O
EC50 ([1]; Calu-3, 72 h): 17.9 µM
EC90 ([1]; time 3.0 day): inactive
CC50 [2]: > 100 µM
selectivity ratio [3]: > 8

C=C1Cc2cc(F)ccc2C(=O)NCC(C)(C)/C(=N/OC)CCCOC1=O
EC50 ([1]; Calu-3, 72 h): 1.65 µM
EC90 ([1]; Calu-3, 72 h, time 3 day): 1.98 µM
CC50 [2]: > 100 µM
selectivity ratio [3]: > 60

C=C1Cc2ccccc2C(=O)NCC(C)(C)/C(=N/OC)CCCOC1=O
EC50 ([1]; Calu-3, 72 h): 0.985 µM
EC90 ([1]; Calu-3, 72 h, time 3 day): 18.3 µM
CC50 [2]: > 100 µM
selectivity ratio [3]: > 101

C=C1Cc2cc(C(F)(F)F)ccc2C(=O)NCC(C)(C)/C(=N/O)CCCCOC1=O
EC50 ([1]; Calu-3, 72 h): 57.3 µM
EC90 ([1]; time 3.0 day): inactive
CC50 [2]: > 100 µM
selectivity ratio [3]: > 1.7
